Experiments:
[1] = reference standard value; cited from earlier work
HEp2 cells [2] = assay: Phototoxicity, Cell Titer Blue assay; assay type: cell-based, human; conditions: 24 h
HEp2 cells [3] = assay: Time-dependent cellular uptake; assay type: cell-based, human; conditions: 10 μM; for cellular accumulation compared with MPIX 3: all time points over 24 h
[4] = Fluorescence quantum yield in DMF; assay type: physicochemical; conditions: room temperature, calculated using porphyrin 3 as standard (0.102)
[5] = biological target: EGFR extracellular domain (Homo sapiens, UniProt P00533); assay: SPR binding to immobilized EGFR; conditions: SPR sensorgram, 400 to 500 s, 100 μM
Chain of EGFR extracellular domain (P00533 25-645 limits assumed): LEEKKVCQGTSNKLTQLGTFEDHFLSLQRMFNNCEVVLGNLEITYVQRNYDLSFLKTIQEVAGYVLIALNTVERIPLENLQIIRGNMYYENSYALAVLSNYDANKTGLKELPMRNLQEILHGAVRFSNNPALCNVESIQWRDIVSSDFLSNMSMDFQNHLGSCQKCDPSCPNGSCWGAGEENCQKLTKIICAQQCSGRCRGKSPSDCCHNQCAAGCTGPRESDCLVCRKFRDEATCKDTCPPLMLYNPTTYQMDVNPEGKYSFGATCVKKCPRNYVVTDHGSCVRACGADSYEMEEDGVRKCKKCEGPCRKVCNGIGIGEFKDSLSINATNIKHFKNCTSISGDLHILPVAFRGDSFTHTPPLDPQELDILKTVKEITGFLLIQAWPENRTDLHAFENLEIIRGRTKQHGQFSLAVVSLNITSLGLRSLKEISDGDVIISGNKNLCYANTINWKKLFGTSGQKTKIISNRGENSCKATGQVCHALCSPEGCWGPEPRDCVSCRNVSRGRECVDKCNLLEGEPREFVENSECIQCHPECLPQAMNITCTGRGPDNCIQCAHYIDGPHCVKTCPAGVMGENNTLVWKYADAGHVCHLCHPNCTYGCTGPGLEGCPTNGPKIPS

| Molecule | cellular accumulation compared with MPIX 3 (HEp2 cells [3]) | Φf (fluorescence quantum yield) [4] | further results |
| --- | --- | --- | --- |
| CCC1=C(C)c2cc3[nH]c(cc4[nH]c(cc5nc(cc1n2)C(C)=C5CC)c(C)c4CCC(=O)O)c(CCC(=O)O)c3C [Compound 3, mesoporphyrin IX] | – | – | ΦF (fluorescence quantum yield) [1]: 0.102 |
| CCC1=C(C)c2cc3[nH]c(cc4nc(cc5[nH]c(cc1n2)c(C)c5CCC(=O)N[C@@H](CC(C)C)C(=O)N[C@@H](C)C(=O)N[C@@H](CCCNC(=N)N)C(=O)N[C@@H](CC(C)C)C(=O)N[C@@H](CC(C)C)C(=O)N[C@H](C(N)=O)[C@@H](C)O)C(CCC(=O)N[C@@H](CC(C)C)C(=O)N[C@@H](C)C(=O)N[C@@H](CCCNC(=N)N)C(=O)N[C@@H](CC(C)C)C(=O)N[C@@H](CC(C)C)C(=O)N[C@H](C(N)=O)[C@@H](C)O)=C4C)c(C)c3CC [Compound 4] | much larger extent than MPIX 3 | – | IC50 (HEp2 cells [2]): 50 µM; cellular accumulation ranking at early times (HEp2 cells [3]; times < 4 h): accumulated the most |
| CCC1=C(C)c2cc3[nH]c(cc4nc(cc5[nH]c(cc1n2)c(C)c5CCC(=O)NCC(=O)N[C@@H](Cc1ccc(O)cc1)C(=O)N[C@@H](Cc1c[nH]cn1)C(=O)N[C@@H](Cc1c[nH]c2ccccc12)C(=O)N[C@@H](Cc1ccc(O)cc1)C(=O)NCC(=O)N[C@@H](Cc1ccc(O)cc1)C(=O)N[C@H](C(=O)N1CCC[C@H]1C(=O)N[C@@H](CCC(N)=O)C(=O)N[C@@H](CC(N)=O)C(=O)N[C@H](C(=O)N[C@H](C(N)=O)[C@@H](C)CC)C(C)C)[C@@H](C)O)C(CCC(=O)O)=C4C)c(C)c3CC [Compound 5] | much larger extent than MPIX 3 | 0.124 | dissociation rate from EGFR [5]: slower dissociation rates |
| GYHWYGYTPQNVI [Compound 8] | much larger extent than MPIX 3 | 0.132 | cellular uptake relative to MPIX 3 (HEp2 cells [3]; after 24 h): about 8 fold |
| LARLLT [Compound 7] | accumulated significantly less | 0.124 | – |

From publication PMC5058426 (Journal of porphyrins and phthalocyanines, 2016)
